Active and inactive are the calls of the source.
Tests used:
[1] = target: T1, Mannose-6-phosphate isomerase (Homo sapiens, UniProt P34949); experiment: PMI enzyme inhibitors, confirmation, biochemical, fluorescence intensity (AID 1535)
T1 sequence (P34949 whole entry): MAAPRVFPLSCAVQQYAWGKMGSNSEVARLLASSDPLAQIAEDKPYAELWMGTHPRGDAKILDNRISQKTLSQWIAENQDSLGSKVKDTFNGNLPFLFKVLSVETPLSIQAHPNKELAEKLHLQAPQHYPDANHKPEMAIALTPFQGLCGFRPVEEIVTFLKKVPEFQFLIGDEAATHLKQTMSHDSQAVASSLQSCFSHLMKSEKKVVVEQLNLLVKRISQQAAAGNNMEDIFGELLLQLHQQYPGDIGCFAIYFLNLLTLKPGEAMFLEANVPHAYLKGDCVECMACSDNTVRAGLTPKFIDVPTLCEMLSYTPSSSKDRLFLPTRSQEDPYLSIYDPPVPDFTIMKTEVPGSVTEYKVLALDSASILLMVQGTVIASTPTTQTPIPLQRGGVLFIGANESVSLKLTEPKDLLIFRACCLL

Phosphomannomutase 2 = Phosphomannomutase 2 (Homo sapiens, UniProt O15305); experiment: Counter screen SAR assay for PMM2 inhibitors via a fluorescence intensity assay. [Related pubchem assays (depositor defined):AID1545, AID1574]
[2] = target: T2, Delta-type opioid receptor (Homo sapiens, UniProt P41143); experiment: HTS Image-Based Screen for Antagonists of the DOR Receptor. [Related pubchem assays (depositor defined):AID1777, AID1785, AID1786, AID2133]; type: functional
[3] = inhibitors of firefly luciferase expression or activity, dose response, H4 neuroglioma cells, luminescence (AID 1990); type: functional, cell-based
Mu-type opioid receptor = Mu-type opioid receptor (Homo sapiens, UniProt P35372); experiment: HTS Image-Based Screen for Agonists of the MOR Receptor. [Related pubchem assays (depositor defined):AID1777, AID1785, AID1786, AID2133]; type: functional;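 note: imaging of beta-arrestin GFP recruitment into spots after receptor activation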
[4] = insulin promoter down-regulators in MIN6 cells, imaging, high-content screening, mouse beta cells (AID 1628); type: functional
[5] = tested on: Streptococcus sp. 'group A'; experiment: growth inhibition of control SK(-) GAS strain, dose response, counter-screen for streptokinase expression inhibitor project, luminescence, kanamycin, BacTiterGlo, confirmation (AID 1900); type: functional, organism-based
[6] = target: T2, Delta-type opioid receptor; experiment: HTS Image-Based Screen for Agonists of the DOR Receptor. [Related pubchem assays (depositor defined):AID1777, AID1786, AID2133]; type: functional
cells [7] = type: functional, cell-based
[8] = cytotoxicity in MIN6 insulinoma cells, dose response, cytotoxicity control, cell-based, mouse insulinoma (AID 2122); type: functional;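 note: confirmatory high-throughput counterscreen run to flag cytotoxic compounds; mouse MIN-6 beta cells carrying an insulin promoter eGFP reporter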
[9] = inhibitors of SNCA 5'UTR-driven reporter translation, confirmation, H4 neuroglioma cells, luminescence (AID 1988); type: functional, cell-based
Streptokinase A = target: T3, Streptokinase A (Streptococcus pyogenes serotype M1, UniProt P10520); experiment: S. pyogenes streptokinase expression inhibitors, potency, dose response, plasminogen activation absorbance, OD405 (AID 1914); type: functional, Streptococcus pyogenes M1 GAS;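 note: secreted streptokinase activity via plasminogen activation per viability signal from cell pellet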
T3 sequence (P10520 whole entry): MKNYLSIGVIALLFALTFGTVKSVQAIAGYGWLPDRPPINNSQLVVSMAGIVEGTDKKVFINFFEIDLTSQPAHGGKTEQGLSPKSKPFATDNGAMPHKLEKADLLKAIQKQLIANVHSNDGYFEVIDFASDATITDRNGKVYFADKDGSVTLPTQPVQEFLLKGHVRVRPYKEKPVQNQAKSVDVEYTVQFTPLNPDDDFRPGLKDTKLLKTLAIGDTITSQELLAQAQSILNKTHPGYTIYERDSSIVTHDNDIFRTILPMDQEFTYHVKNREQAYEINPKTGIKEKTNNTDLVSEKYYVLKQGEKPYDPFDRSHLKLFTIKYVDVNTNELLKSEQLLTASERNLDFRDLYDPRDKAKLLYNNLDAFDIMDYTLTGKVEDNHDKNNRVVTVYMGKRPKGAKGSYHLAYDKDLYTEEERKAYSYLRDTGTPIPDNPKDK

[10] = inhibitors of intracellular T. cruzi replication, confirmation, NIH3T3 host cells, beta-gal luminescence (AID 2044); type: functional, cell-based;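 note: intracellular parasites grown in NIH/3T3 mouse fibroblasts as host cells; luminescent beta-galactosidase reporter signal from transgenic T. cruzi replicating inside host cells; inhibitors lower the luminescence signal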
[11] = microbe, parasite or virus in culture; type: functional; details: Mycobacterium tuberculosis
cells [12] = type: functional, cell-based; remark: listed apart in the source
[13] = growth suppression of PTEN-null colon cells, dose response, cell-based, HCT116 PTEN knockout (AID 1047); type: functional;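 note: HCT116 colon tumor cells with PTEN knocked out; cells exposed to compound for 60 hours before readout; potency for loss of cell viability measured by luminescence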
[14] = target: T4, Kappa-type opioid receptor (Homo sapiens, UniProt P41145); type: functional
[15] = cytotoxicity toward NIH3T3 fibroblasts, dose response, counter-screen, cell-based, ATP luminescence, mouse fibroblasts (AID 2010); type: functional;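 note: cells exposed to compound for about 90 hours before reading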
Beta-galactosidase = Beta-galactosidase (Escherichia coli, UniProt Q8VNN2); type: functional
[16] = growth suppression of beta-catenin-knockout colon cells, dose response, cell-based, HCT116, human colon tumor (AID 1045); type: functional;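 note: HCT116 colon tumor cells with beta catenin knocked out; cells exposed to compound for 60 hours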
[17] = target: T4, Kappa-type opioid receptor; type: functional; remark: listed apart in the source
Streptococcus = experiment: Group A Streptococcus viability loss, dose response, counter-screen for streptokinase expression inhibitor project, luminescence, BacTiterGlo (AID 1915); type: functional, organism-based;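 note: potency for reduction of bacterial viability or growth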
[18] = target: T5, Short transient receptor potential channel 4 (Mus musculus, UniProt Q9QUQ5); experiment: mouse TRPC4 channel inhibitors, dose response, cell-based, HEK293 TRPC4/mu-opioid, Fluo-4 calcium (AID 434942); type: functional;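 note: potency of inhibitors blocking the TRPC4 calcium response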
T5 sequence (Q9QUQ5 whole entry): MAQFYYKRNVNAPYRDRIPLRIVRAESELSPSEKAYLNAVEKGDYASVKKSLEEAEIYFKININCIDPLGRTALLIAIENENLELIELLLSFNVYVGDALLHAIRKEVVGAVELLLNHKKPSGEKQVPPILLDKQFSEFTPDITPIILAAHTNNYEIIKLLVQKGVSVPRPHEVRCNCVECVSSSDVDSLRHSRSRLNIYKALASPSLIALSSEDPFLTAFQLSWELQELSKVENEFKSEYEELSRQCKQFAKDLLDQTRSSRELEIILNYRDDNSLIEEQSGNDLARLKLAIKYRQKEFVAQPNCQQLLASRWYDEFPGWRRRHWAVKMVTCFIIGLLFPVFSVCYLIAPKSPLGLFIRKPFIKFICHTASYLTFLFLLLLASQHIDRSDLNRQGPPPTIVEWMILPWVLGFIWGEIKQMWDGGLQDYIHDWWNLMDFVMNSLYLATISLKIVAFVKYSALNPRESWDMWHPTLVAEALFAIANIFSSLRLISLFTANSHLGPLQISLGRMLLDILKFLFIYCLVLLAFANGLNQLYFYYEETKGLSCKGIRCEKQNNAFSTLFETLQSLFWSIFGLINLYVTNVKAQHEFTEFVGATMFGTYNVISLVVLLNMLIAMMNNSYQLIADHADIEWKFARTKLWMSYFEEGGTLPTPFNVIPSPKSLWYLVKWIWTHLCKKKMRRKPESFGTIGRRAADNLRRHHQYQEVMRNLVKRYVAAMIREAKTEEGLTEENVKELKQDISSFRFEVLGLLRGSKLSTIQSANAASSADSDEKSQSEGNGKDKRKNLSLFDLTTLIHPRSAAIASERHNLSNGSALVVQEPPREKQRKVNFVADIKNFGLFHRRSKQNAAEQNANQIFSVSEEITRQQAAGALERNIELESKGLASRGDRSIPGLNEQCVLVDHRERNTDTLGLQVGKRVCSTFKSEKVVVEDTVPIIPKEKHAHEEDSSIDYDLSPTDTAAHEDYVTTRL

Nonstructural protein 1 = Nonstructural protein 1 (Influenza A virus, UniProt Q194T2); type: functional, Influenza A virus (A/California/07/2009(H1N1))
INS1 = experiment: beta cell apoptosis inhibitors, cytokine rescue, dose response, luminescence, retest (AID 449756); type: functional, cell-based; details: Rattus norvegicus;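 note: cell death triggered by IL-1 beta plus TNF-alpha plus IFN-gamma mixture; protective hits raise ATP signal compared with cytokine alone wells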
[19] = Shn3 3'UTR reporter inhibitors, dose response, cell-based, Clone20 osteoblasts, firefly luciferase, cherry-picked (AID 624132); type: functional;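 note: firefly luciferase luminescence from reporter carrying the Shn3 3'UTR in osteoblasts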
[20] = HepG2 cell cytotoxicity, dose response, cytotoxicity control for Shn3 inhibitor project, CellTiter-Glo, cherry-picked (AID 624134); type: functional, cell-based
[21] = control 3'UTR Renilla luciferase suppression, dose response, counter-screen for Shn3 inhibitor project, cell-based, Clone20-Shn3RL, cherry-picked (AID 624133); type: functional

T2 sequence (P41143 whole entry): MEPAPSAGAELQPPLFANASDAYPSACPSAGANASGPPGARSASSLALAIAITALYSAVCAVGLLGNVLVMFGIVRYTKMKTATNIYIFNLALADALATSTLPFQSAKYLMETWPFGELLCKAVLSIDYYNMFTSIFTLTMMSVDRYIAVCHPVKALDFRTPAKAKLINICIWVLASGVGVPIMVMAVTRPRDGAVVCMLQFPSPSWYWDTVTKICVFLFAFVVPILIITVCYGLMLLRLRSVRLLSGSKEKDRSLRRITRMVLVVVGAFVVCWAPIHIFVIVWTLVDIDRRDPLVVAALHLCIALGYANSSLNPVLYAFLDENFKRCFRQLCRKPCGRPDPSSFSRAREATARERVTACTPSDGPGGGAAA
T4 sequence (P41145 whole entry): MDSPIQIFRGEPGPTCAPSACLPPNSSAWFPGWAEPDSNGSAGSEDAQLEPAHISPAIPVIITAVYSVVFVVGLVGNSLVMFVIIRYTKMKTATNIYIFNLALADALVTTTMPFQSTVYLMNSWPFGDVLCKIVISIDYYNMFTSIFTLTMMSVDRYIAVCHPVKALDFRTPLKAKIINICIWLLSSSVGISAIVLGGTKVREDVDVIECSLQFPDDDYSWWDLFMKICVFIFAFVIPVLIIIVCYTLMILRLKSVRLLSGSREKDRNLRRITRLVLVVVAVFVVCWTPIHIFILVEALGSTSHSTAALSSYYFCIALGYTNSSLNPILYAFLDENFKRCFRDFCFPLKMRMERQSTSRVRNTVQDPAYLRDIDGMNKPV
Sequence of Beta-galactosidase (Q8VNN2 whole entry): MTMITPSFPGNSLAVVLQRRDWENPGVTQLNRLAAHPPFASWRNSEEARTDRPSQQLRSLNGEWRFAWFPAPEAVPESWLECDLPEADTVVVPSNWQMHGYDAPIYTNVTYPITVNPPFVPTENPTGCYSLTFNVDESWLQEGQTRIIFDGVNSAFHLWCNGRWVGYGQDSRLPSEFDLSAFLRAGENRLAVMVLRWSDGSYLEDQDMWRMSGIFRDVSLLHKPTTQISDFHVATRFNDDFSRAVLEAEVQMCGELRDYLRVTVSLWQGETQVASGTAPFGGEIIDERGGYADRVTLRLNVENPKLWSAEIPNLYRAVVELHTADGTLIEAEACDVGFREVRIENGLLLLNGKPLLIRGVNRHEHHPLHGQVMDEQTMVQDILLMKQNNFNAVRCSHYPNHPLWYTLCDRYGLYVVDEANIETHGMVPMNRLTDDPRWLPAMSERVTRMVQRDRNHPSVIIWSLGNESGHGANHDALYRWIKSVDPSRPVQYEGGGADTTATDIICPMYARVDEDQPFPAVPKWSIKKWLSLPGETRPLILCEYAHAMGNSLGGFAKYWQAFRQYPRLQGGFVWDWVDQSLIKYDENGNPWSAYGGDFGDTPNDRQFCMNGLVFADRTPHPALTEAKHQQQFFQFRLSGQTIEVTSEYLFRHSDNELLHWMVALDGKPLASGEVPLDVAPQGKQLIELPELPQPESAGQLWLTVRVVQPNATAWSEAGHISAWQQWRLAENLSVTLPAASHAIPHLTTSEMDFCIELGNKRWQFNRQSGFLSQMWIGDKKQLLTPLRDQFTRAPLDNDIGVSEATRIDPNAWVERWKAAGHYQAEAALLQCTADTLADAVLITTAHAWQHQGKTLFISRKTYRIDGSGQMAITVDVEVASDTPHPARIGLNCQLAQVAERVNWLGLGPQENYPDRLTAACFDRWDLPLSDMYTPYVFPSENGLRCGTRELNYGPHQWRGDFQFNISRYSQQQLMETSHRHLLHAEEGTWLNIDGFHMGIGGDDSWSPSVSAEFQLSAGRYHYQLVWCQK
Sequence of Nonstructural protein 1 (Q194T2 whole entry): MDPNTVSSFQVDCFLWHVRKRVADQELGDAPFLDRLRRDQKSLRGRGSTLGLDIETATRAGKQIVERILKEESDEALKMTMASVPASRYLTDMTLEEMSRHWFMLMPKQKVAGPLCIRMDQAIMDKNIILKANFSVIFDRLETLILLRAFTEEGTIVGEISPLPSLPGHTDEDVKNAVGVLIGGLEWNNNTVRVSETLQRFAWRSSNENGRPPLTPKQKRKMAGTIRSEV
Sequence of Mu-type opioid receptor (P35372 whole entry): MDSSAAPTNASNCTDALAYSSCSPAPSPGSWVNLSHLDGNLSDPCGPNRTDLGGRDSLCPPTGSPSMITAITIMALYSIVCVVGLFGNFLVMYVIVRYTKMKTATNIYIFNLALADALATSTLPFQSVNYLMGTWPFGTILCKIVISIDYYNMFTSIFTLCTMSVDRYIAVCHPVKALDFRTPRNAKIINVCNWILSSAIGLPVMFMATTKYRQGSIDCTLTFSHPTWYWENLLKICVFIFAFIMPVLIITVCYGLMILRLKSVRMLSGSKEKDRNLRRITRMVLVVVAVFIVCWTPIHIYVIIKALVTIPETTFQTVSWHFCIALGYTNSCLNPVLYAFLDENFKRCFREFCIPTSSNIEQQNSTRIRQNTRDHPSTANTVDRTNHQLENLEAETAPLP
Sequence of Phosphomannomutase 2 (O15305 whole entry): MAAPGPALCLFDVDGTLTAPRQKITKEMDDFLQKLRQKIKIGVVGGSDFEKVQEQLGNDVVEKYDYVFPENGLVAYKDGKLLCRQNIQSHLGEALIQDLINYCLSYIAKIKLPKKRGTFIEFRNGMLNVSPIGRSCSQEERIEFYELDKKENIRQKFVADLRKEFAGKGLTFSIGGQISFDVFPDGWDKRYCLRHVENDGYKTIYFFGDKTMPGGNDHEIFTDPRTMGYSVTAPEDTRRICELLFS

Structure (SMILES): OCc1ccccc1/N=c1\ssnc1Cl
- IC50 [1]: 35.8 µM (active)
- IC50 (Phosphomannomutase 2): > 100 µM (inactive)

Structure (SMILES): Oc1ccc(CN2CCc3ccccc3C2)c2cccnc12
- IC50 [2]: > 32 µM (inactive)
- EC50 [3]: < 0.1 µM (active)
- EC50 (Mu-type opioid receptor): > 32 µM (inactive)
- IC50 [4]: 1.96 µM (active)
- EC50 [5]: 6.14 µM (active)
- EC50 [6]: > 32 µM (inactive)
- EC50 (cells [7]): 4.63 µM (active)
- IC50 [8]: 1.69 µM (active)
- EC50 [9]: 0.528 µM (active)
- EC50 (Streptokinase A): > 150 µM (not active)
- EC50 [10]: 0.529 µM (active)
- CC50 [11]: 1.62 µM (active)
- EC50 (cells [12]): > 350 µM (not active)
- EC50 [13]: 1.82 µM (active)
- IC50 [14]: 14 µM (active)
- EC50 [15]: 5.88 µM (active)
- EC50 (Beta-galactosidase): > 31.5 µM (inactive)
- EC50 [16]: 1.52 µM (active)
- IC50 [17]: > 32 µM
- EC50 (Streptococcus): 13.8 µM (active)
- EC50 [18]: 7.5 µM (active)
- IC50 (Nonstructural protein 1): 5.76 µM (active)
- AC50 (INS1): 1.83 µM (active)
- AC50 [19]: 0.673 µM (active)
- AC50 [20]: 1.69 µM (active)
- AC50 [21]: 0.971 µM (active)

Reference: ChEMBL document CHEMBL1201862, “PubChem BioAssay data set” (2004)
